Results as given in US10287337B2 (priority 2015, dated 2019).

Experiments:
[1] = system: electrocutaneous stimulation-induced facial pain in rats; assay: Electrocutaneous stimulation-induced facial inflammatory pain model; format: in vivo, rat; conditions: intranasal
Procedure: In humans electrocutaneous stimulation elicited vasodilatation in the cheek (Vassend and Knardahl, 2005). […] Baseline facial thermal thresholds of rats (Sprague-Dawley, male, 260-300 g) were assessed on the rats' depilated left cheek and then each rat received 1 hour of electrocutaneous facial stimulation using WPI ISOSTIM™ A320 (World Precision Instruments, 0.4 mA intensity, 10 ms duration, Is inter-pulse interval). 24 hr after stimulation (Day 1), each rat's thermal pain threshold mediated by A-delta fiber and C fiber were separately measured using a thermal nociception lamp (variable voltage regulator model: No. SC-3M) to evoke A-delta and C nerve fiber-mediated cheek withdrawal. […] Thermal thresholds were measured once every 0.5 hour for the first 3 hours post-I.N. dosing, and then 4, 5, and 6 hour post-I.N. dosing. Voltage regulator set to 90V for A-delta fiber testing and 45V for C fiber testing. Cutoff set at 6 seconds and 20 seconds for A-delta fiber and C fiber testing, respectively.

[2] = system: tibial neuroma-induced neuropathic pain in rats; assay: Tibial neuroma transposition model, neuroma tenderness; format: in vivo, rat; conditions: injected into skin over neuroma site
Description: Sprague Dawley rats (male, approximately 400 g) were undergone surgery as described by Dorsi et al., briefly, a 2-3 cm incision was made through the skin and subcutaneous fascia of the ventral surface of the pelvic leg extending from the tarsometatarsal joint to approximately 1 cm distal to the level of the stifle the nerve was isolated and the posterior tibial branch was ligated and then sharply transected approximately 2 mm distal to the ligature, as illustrated in FIG. 8A. After the medial skin incision closure, the rat was transferred to a recovery cage devoid of bedding and placed halfway upon a recirculating hot water pad until standing; once recovered, the rat was returned to its home cage and monitored daily for signs of pain and wound dehiscence.
The rats were allowed to recover from the surgical procedure before beginning behavioral testing to assess neuroma development. On post-operative days 7 and 14, rats were assessed for mechanical pain using the “up-down” method of Von Frey mechanical testing and direct mechanical stimulation of the neuroma (referred to as neuroma tenderness testing). Neuroma tenderness was tested by applying the 15 g filament to the neuroma site up to five times in a series with a three second break between applications; the series was completed and scored as a positive as soon as a positive withdrawal response is seen. […]

H-NFVPTNVGPFAF-NH2 [AFA-peptide 3, NH2-N-F-V-P-T-N-V-G-P-F-A-F-CONH2]
A-delta fiber-mediated pain withdrawal latencies vs vehicle (in words) ([1]; 1 μM): significantly prolonged
C-fiber-mediated pain withdrawal latencies vs vehicle (in words) ([1]; 1 μM): even more substantial and significantly prolonged
thermal pain thresholds in naïve, non-facial stimulation rats (in words) ([1]; data not shown): did not alter thermal pain thresholds
duration of analgesic effect [2]: 3 to 4 h
neuroma tenderness (in words) ([2]; 0.3 and 1 μM, 50 μL): reduced neuroma tenderness in dose-related manner
